Test results as given in patent US20160082161A1, “DRUG-ELUTING MEDICAL DEVICES” (Ramot at Tel-Aviv University Ltd., priority 2008, published 2016).

Assay: In vitro drug release from drug-eluting composite fibers in PBS
Format: physicochemical
Settings: PBS pH 7.4, 37° C.; PDLGA porous coat
Description: The composite drug-eluting fibers were immersed in phosphate buffered saline (PBS) at 37° C. and pH 7.4 for 35 days (FTS) or 37 weeks (paclitaxel), in triplicates, in order to determine the release kinetics from the drug-loaded composite structures. Each test vial contained 2 fibers; each fiber was 5 cm long. The release studies were conducted in closed glass tubes containing 3 ml PBS medium, using a horizontal bath shaker operated at a constant rate of 130 rpm. The medium was removed completely at certain sampling time points, extracted from the aqueous medium as described herein and measured using HPLC. Fresh medium was then introduced. At the end of the experiment the fibers were immersed in methylene chloride and the residual amount of drug was measured.
The drug content of the medium samples was determined using Jasco High Performance Liquid Chromatography (HPLC) equipped with a UV 2075 plus detector and a quaternary gradient pump (PU 2089 plus). […] The paclitaxel content of the medium samples was determined using a reverse phase column (Zorbax ODS 5 μm, inner diameter 4.6 mm, length 150 mm), and kept at 25° C. […]
On the final day of the in vitro trial, residual FTS from composite drug-eluting fibers was measured as follows: the fibers were placed in 1 ml methylene chloride for 10 minutes and the coating shell was dissolved. […]

Compound | Drug release from porous coat structures (time scale)
CC(C)=CCCC(C)=CCCC(C)=CCSc1ccccc1C(=O)O (stereo in doubt) [FTS, 2-((2E,6E)-3,7,11-trimethyldodeca-2,6,10-trienylthio)benzoic acid] | relatively fast FTS release within several weeks
CC(=O)O[C@H]1C(=O)[C@@]2(C)[C@H]([C@H](OC(=O)c3ccccc3)[C@]3(O)C[C@H](OC(=O)[C@H](O)[C@@H](NC(=O)c4ccccc4)c4ccccc4)C(C)=C1C3(C)C)[C@]1(OC(C)=O)CO[C@@H]1C[C@@H]2O [paclitaxel, Paclitaxel] | slower paclitaxel release within several months
